This note sets out measurements from patent US7902225B2, “Mycobacterial inhibitors” (Janssen Pharmaceutica NV, priority 2005, dated 2011).

Molecules are shown by their SMILES. Where a name gives a salt, the structure may show the parent alone.

One series relates to M. Smegmatis ATCC607. The series can be described thus: In-vitro anti-bacterial activity against strain M. smegmatis ATCC607 (growth inhibition, Alamar Blue fluorescence). The format is cell-based. The conditions noted are these: 48 hours at 37° C. Here is the method:
D.2. In-vitro Method for Testing Compounds for Anti-bacterial Activity Against Strain M. Smegmatis ATCC607. Flat-bottom, sterile 96well plastic microtiter plates were filled with 180 μl of sterile deionized water, supplemented with 0.25% BSA. Subsequently, stock solutions (7.8× final test concentration) of compounds were added in 45 μl volumes to a series of duplicate wells in column 2 so as to allow evaluation of their effects on bacterial growth. Serial five-fold dilutions (45 μl in 180 μl) were made directly in the microtiter plates from column 2 to 11 using a customised robot system (Zymark Corp., Hopkinton, Mass.). Pipette tips were changed after every 3 dilutions to minimize pipetting errors with high hydrophobic compounds. Untreated control samples with (column 1) and without (column 12) inoculum were included in each microtiter plate. Approximately 250 CFU per well of bacteria inoculum, in a volume of 100 μl in 2.8× Mueller-Hinton broth medium, was added to the rows […]. The same volume of broth medium without inoculum was added to column 12 in row A to H. The cultures were incubated at 37° C. for 48 hours in a humidified 5% CO2 atmosphere (incubator with open air valve and continuous ventilation). At the end of incubation, two days after inoculation, the bacterial growth was quantitated fluorometrically. Therefore Alamar Blue (10×) was added to all wells in a volume of 20 μl and plates were incubated for another 2 hours at […] The fluorescence was read in a computer-controlled fluorometer (Cytofluor, Biosearch) at an excitation wavelength of 530 nm and an emission wavelength of 590 nm (gain 30). The % growth inhibition achieved by the compounds was calculated according to standard methods. The pIC50 was defined as the 50% inhibitory concentration for bacterial growth.
On to `CN(C)CCC(O)(c1ccccc1)c1cc2nc(N3CCN(C)CC3)c(Cc3ccccc3)cc2cc1Br` (stereo not shown) [Compound 61], for which the “M. smegmatis (pIC50)” value is given as 5.3.

As for `CN(C)CCC(O)(c1cccc2ccccc12)c1cc(Br)cc2cc(Cc3ccccc3)c(N3CCN(O)CC3)nc12` (stereo not shown) [Compound 49], the “M. smegmatis (pIC50)” value amounted to 6.1.

In the case of `CN(C)CCC(O)(c1ccccc1)c1cc(Br)cc2cc(Cc3ccccc3)c(N3CCN(C(=O)c4ccco4)CC3)nc12` (stereo not shown) [Compound 86], the “M. smegmatis (pIC50)” value came to 5.7.

`CCCCNc1nc2c(C(O)(CCN(C)C)c3ccccc3)cc(Br)cc2cc1Cc1ccccc1` (stereo not shown) [Compound 93]: the “M. smegmatis (pIC50)” value was determined as 5.1.

Consider `CN(C)CCC(O)(c1cccc2ccccc12)c1cc(Br)cc2cc(Cc3ccccc3)c(N3CCN(Cc4ccc5c(c4)OCO5)CC3)nc12` (stereo not shown) [Compound 45], for which the “M. smegmatis (pIC50)” value came out at 6.6.

In the case of `CN(C)CCC(O)(c1cccc2ccccc12)c1cc(Br)cc2cc(Cc3ccccc3)c(N(C)C)nc12` (stereo not shown) [Compound 57], the “M. smegmatis (pIC50)” value stood at 5.8.

The same series, now with this note: Mycolicibacterium smegmatis, 48 hours at 37° C., read-out: M. smegmatis (pIC50) (converted).
For the molecule `COc1nc2c(C(O)(CCN(C)C)c3ccccc3)cc(-c3cccnc3)cc2cc1Cc1ccccc1` (stereo not shown) [Compound 14], the IC50 was 7940 nM.

In the case of `CN(C)CCC(O)(Cc1c(Cc2ccccc2)c(-c2ccco2)nc2ccccc12)c1cc(F)cc(F)c1` (stereo not shown) [Compound 5], the IC50 is 398 nM.

With `CN(C)CCC(O)(c1ccccc1)c1cc(Br)cc2cc(Cc3ccccc3)c(N3CCOCC3)nc12` (stereo not shown) [Compound 7], the IC50 was 1580 nM.

For the molecule `CN(C)CCC(O)(c1cccc2ccccc12)c1cc(Br)cc2cc(Cc3ccccc3)c(N3CCN(Cc4ccccc4)CC3)nc12` (stereo not shown) [Compound 47], the IC50 is 398 nM.

As to `CN(C)CCC(O)(c1cc(F)cc(F)c1)c1cccc2nc(N3CCN(C)CC3)c(-c3ccccc3)cc12` (stereo not shown) [Compound 32], the IC50 is 10000 nM.

Regarding `CN(C)CCC(O)(c1ccccc1)c1cc(Br)cc2cc(Cc3ccccc3)c(NCCC(c3ccccc3)c3ccccc3)nc12` (stereo not shown) [Compound 88], the IC50 was 2510 nM.

Take `CN(C)CCC(O)(c1ccccc1)c1cc2nc(N3CCN(Cc4ccccc4)CC3)c(Cc3ccccc3)cc2cc1Br` (stereo not shown) [Compound 55]: the IC50 was 1260 nM.

For the molecule `COc1nc2c(C(O)(CCN(C)C)c3ccccc3)cc(Br)cc2cc1Cc1ccccc1` (stereo not shown) [Compound 3], the IC50 was 1260 nM.

In the case of `CC(=O)c1ccc(N2CCN(c3nc4c(C(O)(CCN(C)C)c5ccccc5)cc(Br)cc4cc3Cc3ccccc3)CC2)cc1` (stereo not shown) [Compound 82], the IC50 was 1580 nM.

`CN(C)CCC(O)(c1cc(F)cc(F)c1)c1cccc2nc(N(C)C)c(-c3ccccc3)cc12` (stereo not shown) [Compound 10]: the IC50 was 2000 nM.

Turning to `CN(C)CCC(O)(c1ccccc1)c1cccc2nc(N3CCN(C)CC3)c(-c3ccccc3)cc12` (stereo not shown) [Compound 37], the IC50 is 79400 nM.

As for `CN(C)CCC(O)(Cc1c(Cc2ccccc2)c(-c2ccsc2)nc2ccccc12)c1cc(F)cc(F)c1` (stereo not shown) [Compound 40], the IC50 was 7940 nM.

As for `CN(C)CCC(O)(c1cc(F)cc(F)c1)c1cc(Br)cc2cc(-c3ccccc3)c(-n3ccnc3)nc12` (stereo not shown) [Compound 44], the IC50 was 1260 nM.

Take `CN(C)CCC(O)(c1cccc2ccccc12)c1cc(Br)cc2cc(Cc3ccccc3)c(N3CCCC3)nc12` (stereo not shown) [Compound 52]: the IC50 was 1000 nM.

Test system in another series: not given
Experiment: not given
Conditions: not given
The term melting point denotes the temperature of the solid-liquid transition. Molecule `CN(C)CCC(O)(c1cc(F)cc(F)c1)c1ccc2nc(-c3cccnc3)cc(-c3ccccc3)c2c1` (stereo not shown) (as salt: salt) [Compound 8] came in with a melting point of 151 °C.

Consider `COc1nc2c(C(O)(CCN(C)C)c3ccccc3)cc(-c3cccnc3)cc2cc1Cc1ccccc1` (stereo not shown) [Compound 14], for which the melting point came out at 180 °C.

For `CN(C)CCC(O)(c1cccc2ccccc12)c1cc(Br)cc2cc(-c3ccccc3)c(=O)[nH]c12` (stereo not shown), the melting point was 190 °C.

As to `COc1nc2c(C(O)(CCN(C)C)c3cc(F)cc(F)c3)cc(-c3cccnc3)cc2cc1-c1ccccc1` (stereo not shown) (as salt: salt) [Compound 13], the melting point came to 156 °C.

In turn, `CN(C)CCC(O)(Cc1c(Cc2ccccc2)c(-c2ccco2)nc2ccccc12)c1cc(F)cc(F)c1` (stereo not shown) [Compound 5] displayed a melting point of 130 °C.

As for `CN(C)CCC(O)(c1ccccc1)c1cc(Br)cc2cc(Cc3ccccc3)c(N3CCOCC3)nc12` (stereo not shown) [Compound 7], the melting point turned out to be 70 °C.

In turn, `CN(C)CCC(O)(c1cc(F)cc(F)c1)c1cccc2nc(N(C)C)c(-c3ccccc3)cc12` (stereo not shown) (as salt: salt) [Compound 10] showed a melting point of 136 °C.

In turn, `COc1nc2c(C(O)(CCN(C)C)c3ccccc3)cc(Br)cc2cc1Cc1ccccc1` (stereo not shown) [Compound 3] gave a melting point of 66 °C.
